In article PMC7180452, “Purine and Purine Isostere Derivatives of Ferrocene: An Evaluation of ADME, Antitumor and Electrochemical Properties” (Molecules, 2020):

What was measured:
[1] = test system: metastatic colorectal adenocarcinoma (SW620); assay: In vitro antiproliferative activity, SW620; assay type: cell-based, human; details: SW620 cells
Description: (§1) Antiproliferative activity of compounds 11a−11c, 12a−12c, 13a−13c, 14a−14c, 15a−15c, 16a, 23a−23c, 24a−24c, 25a−25c, 34a−34c and 35a−35c was evaluated in vitro on four human tumor cell lines (American Type Culture Collection, Manassas, VA, USA): metastatic colorectal adenocarcinoma (SW620), ductal pancreatic adenocarcinoma (CFPAC-1), hepatocellular carcinoma (HepG2) and cervical carcinoma (HeLa) as well as normal skin fibroblasts (HFF).

[2] = test system: ductal pancreatic adenocarcinoma (CFPAC-1); assay: In vitro antiproliferative activity, CFPAC-1; assay type: cell-based, human; details: CFPAC-1 cells
Description: as §1

[3] = test system: hepatocellular carcinoma (HepG2); assay: In vitro antiproliferative activity, HepG2; assay type: cell-based, human; details: HepG2 cells
Description: as §1

[4] = test system: cervical carcinoma (HeLa); assay: In vitro antiproliferative activity, HeLa; assay type: cell-based, human; details: HeLa cells
Description: as §1

[5] = test system: normal skin fibroblasts (HFF); assay: Cytotoxicity on non-tumor cells, HFF; assay type: cell-based, human
Description: as §1

[6] = Turbidimetric kinetic solubility assay; details: PBS, 1% DMSO, 37 °C, 2 h, estimated range
Description: The turbidimetric solubility assay, which allows a rapid determination of the kinetic solubility of newly synthesized compounds using small amounts of their DMSO solutions, was used to assess the kinetic solubility [38].
The compounds’ DMSO stock solutions in concentration of 10 mM were serially diluted by factor 3.3×, 3×, 3.3× and 3× in DMSO. Prepared solutions were spiked into phosphate-buffered saline (PBS, 100 mM) to obtain final compounds’ concentrations of 100, 30, 10, 3 and 1 µM (3 µL of prepared dilutions were spiked to 297 µL of PBS, with final DMSO content of 1%, v/v). All compounds were tested in two replicas per concentration. Prepared solutions were incubated at 37 °C for 2 h with gentle shaking. Blank solutions were also prepared by spiking DMSO in PBS buffer (1% of DMSO, v/v). […] Compound/control samples are compared to the blank solution. […] Results were expressed as an estimated solubility range (lower and upper bound).

[7] = Chrom logD determination (fast-gradient HPLC); details: pH 7.4

| SMILES | IC50 [1] [µM] | IC50 [2] [µM] | IC50 [3] [µM] | IC50 [4] [µM] | Kinetic Solubility [6] [µM] | Chrom logD [7] | IC50 [5] [µM] |
| --- | --- | --- | --- | --- | --- | --- | --- |
| Nc1ncnc2c1ncn2Cc1cn(C[c-]2cccc2)nn1.[Fe+2].c1cc[cH-]c1 [Compound 12a, 6-Amino-9-[1-(1-ferrocenymethyl-1,2,3-triazol-4-yl)methyl]-9H-purine] | > 100 | > 100 | > 100 | > 100 | 30 to 100 | 2.85 | 56.6 ± 15.6 |
| CC([c-]1cccc1)n1cc(Cn2cnc3c(N)ncnc32)nn1.[Fe+2].c1cc[cH-]c1 (stereo not shown) [Compound 12b, 6-Amino-9-[1-(1-ferrocenyl-1-methylmethyl-1,2,3-triazol-4-yl)methyl]-9H-purine] | 75 ± 8.93 | 70.2 ± 6.5 | 68.6 ± 9.15 | 76.4 ± 3.41 | >100 | 3.09 | 18.4 ± 2.64 |
| Nc1ncnc2c1ncn2Cc1cn(-[c-]2cccc2)nn1.[Fe+2].c1cc[cH-]c1 [Compound 12c, 6-Amino-9-[1-(1-ferrocenyl-1,2,3-triazol-1-yl)methyl]-9H-purine] | > 100 | > 100 | > 100 | > 100 | 3 to 10 | 2.64 | 54.5 ± 4.96 |
| CC([c-]1cccc1)n1cc(Cn2cnc3c(Cl)ncnc32)nn1.[Fe+2].c1cc[cH-]c1 (stereo not shown) [Compound 13b, 6-Chloro-9-[1-(1-ferrocenyl-1-methylmethyl-1,2,3-triazol-4-yl)methyl]-9H-purine] | 36.6 ± 3.42 | 43.8 ± 10.9 | 38.8 ± 10.1 | 40.3 ± 4.52 | 30 to 100 | 4.64 | 6.79 ± 1.06 |
| Clc1ncnc2c1ncn2Cc1cn(-[c-]2cccc2)nn1.[Fe+2].c1cc[cH-]c1 [Compound 13c, 6-Chloro-9-[1-(1-ferrocenyl-1,2,3-triazol-1-yl)methyl]-9H-purine] | 51.8 ± 1.9 | 54.7 ± 5.13 | 54.7 ± 3.21 | 46.8 ± 6.72 | >100 | 4.19 | 6.77 ± 2.78 |
| Nc1nc(Cl)c2ncn(Cc3cn(C[c-]4cccc4)nn3)c2n1.[Fe+2].c1cc[cH-]c1 [Compound 14a, 2-Amino-6-chloro-9-[1-(1-ferrocenymethyl-1,2,3-triazol-4-yl)methyl]-9H-purine] | 60.2 ± 24.4 | 49.5 ± 5.03 | 60.1 ± 5.73 | 71.4 ± 16.1 | 30 to 100 | 3.62 | > 100 |
| CC([c-]1cccc1)n1cc(Cn2cnc3c(Cl)nc(N)nc32)nn1.[Fe+2].c1cc[cH-]c1 (stereo not shown) [Compound 14b, 2-Amino-6-chloro-9-[1-(1-ferrocenyl-1-methylmethyl-1,2,3-triazol-4-yl)methyl]-9H-purine] | 98.7 ± 19.7 | 67.4 ± 9.12 | 77.1 ± 5.92 | > 100 | 30 to 100 | 3.90 | 11.5 ± 5.09 |
| Nc1nc(Cl)c2ncn(Cc3cn(-[c-]4cccc4)nn3)c2n1.[Fe+2].c1cc[cH-]c1 [Compound 14c, 2-Amino-6-chloro-9-[1-(1-ferrocenyl-1,2,3-triazol-1-yl)methyl]-9H-purine] | 81.3 ± 1.23 | 90.5 ± 1.83 | > 100 | > 100 | <1 | 3.50 | 24.6 ± 4.45 |
| Clc1ncnc2ncn(Cc3cn(-[c-]4cccc4)nn3)c12.[Fe+2].c1cc[cH-]c1 [Compound 15c, 6-Chloro-7-[1-(1-ferrocenyl-1,2,3-triazol-1-yl)methyl]-7H-purine] | 45.5 ± 4.52 | 72.2 ± 13.7 | 81.7 ± 17.1 | 69.2 ± 25.5 | >100 | 3.68 | 29.6 ± 4.28 |
| Nc1nc(Cl)c2c(ncn2Cc2cn(C[c-]3cccc3)nn2)n1.[Fe+2].c1cc[cH-]c1 [Compound 16a, 2-Amino-6-chloro-7-[1-(1-ferrocenymethyl-1,2,3-triazol-4-yl)methyl]-7H-purine] | > 100 | > 100 | > 100 | > 100 | <1 | 3.37 | 5.3 ± 5.36 |

Now from value to compound, other results behind:

| IC50 [1] [µM] | IC50 [2] [µM] | IC50 [3] [µM] | IC50 [4] [µM] | Kinetic Solubility [6] [µM] | Chrom logD [7] | SMILES | IC50 [5] [µM] |
| --- | --- | --- | --- | --- | --- | --- | --- |
| > 100 | > 100 | > 100 | > 100 | 10 to 30 | 4.92 | Clc1ncnc2c1ccn2CCn1cc(-[c-]2cccc2)nn1.[Fe+2].c1cc[cH-]c1 [Compound 34a, 4-Chloro-7-(2-(4-ferrocenyl-1,2,3-triazol-1-yl)ethyl)-7H-pyrrolo[2,3-d]pyrimidine] | > 100 |
| > 100 | > 100 | > 100 | > 100 | 10 to 30 | 4.30 | [Fe+2].c1cc[c-](-c2cn(CCn3ccc4c(N5CCCC5)ncnc43)nn2)c1.c1cc[cH-]c1 [Compound 34b, 4-(Pyrrolidin-1-yl)-7-[2-(4-ferrocenyl-1,2,3-triazol-1-yl)ethyl]-7H-pyrrolo[2,3-d]pyrimidine] | > 100 |
| 57.6 ± 6.55 | 45.8 ± 9.11 | 57.6 ± 13.8 | 71.1 ± 15.9 | 10 to 30 | 5.49 | [Fe+2].c1cc[c-](-c2cn(CCn3ccc4c(N5CCCCC5)ncnc43)nn2)c1.c1cc[cH-]c1 [Compound 34c, 4-(Piperidin-1-yl)-7-[2-(4-ferrocenyl-1,2,3-triazol-1-yl)ethyl]-7H-pyrrolo[2,3-d]pyrimidine] | 20.2 ± 1.54 |
| 78.2 ± 5.69 | 65.3 ± 6.23 | 48.1 ± 7.85 | 63 ± 6.06 | 10 to 30 | 3.70 | Clc1ncnc2c1ncn2CCn1cc(-[c-]2cccc2)nn1.[Fe+2].c1cc[cH-]c1 [Compound 35a, 6-Chloro-9-[2-(4-ferrocenyl-1,2,3-triazol-1-yl)ethyl]-9H-purine] | 6 ± 2.99 |
| > 100 | > 100 | > 100 | > 100 | 30 to 100 | 3.58 | [Fe+2].c1cc[c-](-c2cn(CCn3cnc4c(N5CCCC5)ncnc43)nn2)c1.c1cc[cH-]c1 [Compound 35b, 6-(Pyrrolidin-1-yl)-9-[2-(4-ferrocenyl-1,2,3-triazol-1-yl)ethyl]-9H-purine] | > 100 |
| > 100 | > 100 | > 100 | > 100 | 10 to 30 | 5.02 | [Fe+2].c1cc[c-](-c2cn(CCn3cnc4c(N5CCCCC5)ncnc43)nn2)c1.c1cc[cH-]c1 [Compound 35c, 6-(Piperidin-1-yl)-9-[2-(4-ferrocenyl-1,2,3-triazol-1-yl)ethyl]-9H-purine] | 6.83 ± 2.17 |
